Assay results: patent US8372840B2, “Potassium channel blockers” (Xention Limited, priority 2008, dated 2013)

Tests used:
[1] = biological target: T1, human Kv1.3 (Homo sapiens, UniProt P22001); assay: Kv1.3 Autopatch Electrophysiology (whole cell patch-clamp, stably transfected CHO cells); assay type: cell-based; conditions: compound 1 μM, step to +30 mV for 500 ms, inhibition of total charge relative to control, room temperature
T1 construct: expressed in transfected cells; host or cells: stably transfected cells grown in medium for CHO cells
Experimental: Cells stably transfected with cDNA for human Kv1.3 (in pcDNA3.1) were grown in Ex-cell 302 serum-free medium for CHO cells, supplemented with 10 μl/ml [100×] glutamine, 500 μg/ml G418 ([…]), and 1% HT supplement (50×, hypoxanthine and thymidine). Compounds were tested on these cells using the AutoPatch technology in whole cell mode.
The external bathing solution contained (in mM): 150 NaCl, 10 KCl, 1 MgCl2, 3 CaCl2, 10 HEPES, pH 7.4 with NaOH. Patch pipettes were filled with an electrode solution of composition (in mM): 100 K-Gluconate, 20 KCl, 1 MgCl2, 1 CaCl2, 10 HEPES, 11 EGTA, 5 ATP-Na2, 2 Glutathione pH 7.2 with KOH.
Compounds were dissolved in DMSO (100%) and made up in the external bather at a concentration of 1 μM immediately prior to use. All experiments were conducted at room temperature.
A cell suspension (10 ml), with a density of 6×10^6 cells, was aliquoted into a 15 ml centrifuge tube and stored at 4° C. before use. Prior to use a tube was taken and centrifuged at 1000 rpm for 4 mins at room temperature. The supernatant was then discarded, leaving a cell pellet at the bottom of the tube. The pellet was then resuspended using 1 ml of cold (4° C.), filtered (0.22 μm), 0.05% BSA/bather solution (0.05 g BSA/100 ml bather). The bottom of the tube was manually agitated followed by gentle tituration. The cell suspension was then placed in the AutoPatch™ temperature controlled cell-hotel at 14° C. and regularly titurated.
A length of Teflon capillary tubing was dipped into the cell suspension solution, and a column of fluid was taken up by negative pressure. The column of fluid was in electrically connectivity with a Ag/AgCl reference electrode. Borosilicate glass patch pipettes (from 1.5 mm OD, thin-walled filamented, GC150-TF capillary glass, Harvard) were pulled using a DMZ pipette puller (Zeitz Instruments), and were back-filled using the internal pipette solution, being careful that no bubbles remained at the tip or in the body of the pipette. Patch pipettes typically had resistances of 2.5-3.5 MΩ. Once filled, the pipette tip and a proportion of the shaft (˜15 mm) were dipped into Sigmacote (Sigma). The recording pipettes were placed in a multiwell array and mounted on the AutoPatch™ machine. Automated patch-clamping and drug-application was initiated by the operator, but thereafter AutoPatch.exe continued the experiment providing that pre-set conditions and criteria were satisfied.
Whole cell patch-clamp recordings were made using the AutoPatch™ rig, which incorporated an EPC9 or EPC10 amplifier (HEKA, Germany) under control of Pulse software (v8.54 or v8.76, HEKA, Germany), a cell applicator, automated drug application system (DAS), valve controller (VF1) and a suction device all at room temperature. This equipment was completely under the control of AutoPatch.exe and operator intervention was only made when there was a requirement to refill the bather reservoirs or to prevent the loss of a cell due to a technical error.
Qualification stages prior to perfusion and drug application ensured that the observed current met the criteria for the experiment. Cells were continuously perfused with external solution at a flow rate of ˜2 ml/minute.
Electrophysiology voltage-step protocols and analysis of data was performed as follows. Data were sampled at 5 kHz, and filtered with a −3 dB bandwidth of 2.5 kHz. Cells were held at a voltage of −80 mV. Currents were evoked by a voltage step to +30 mV for 500 ms in duration applied every 15 s. Online analysis of the hKv1.3 current during the application of compounds was performed by the Pulse (v8.54 or v8.76, HEKA, Germany), Excel (Microsoft, USA) and AutoPatch™ software, with the total charge measured during the whole of voltage step Inhibition of charge movement in the presence of drug was calculated relative to control.

[2] = biological target: hKv1.5 (Homo sapiens, UniProt P22460); assay: Kv1.5 Autopatch Electrophysiology (whole cell patch-clamp); assay type: cell-based; conditions: compound 1 μM, step to 0 mV for 1000 ms, total charge, room temperature (22-24° C.); for inhibition at 1 µM: read-out: hKv1.5 % inh.
Experimental: The external bathing solution contained (in mM): 150 NaCl, 10 KCl, […], 3 MgCl2, 1 CaCl2, 10 HEPES, pH 7.4. Patch pipettes were filled with an electrode solution of composition (in mM): 160 KCl, 0.5 MgCl2, 10 HEPES, 1 EGTA, pH 7.4 with KOH.
Compounds were dissolved in DMSO (100%) and made up in the external bather at a concentration of 1 μM. All experiments were conducted at room temperature (22-24° C.).
A cell suspension (10 ml), with a density of 100,000 cells/ml, was aliquoted into a 15 ml centrifuge tube and transferred to an incubator (37° C., 5% CO2) for approximately one hour before use. Following 60 min incubation, a tube was taken and centrifuged at 1000 rpm for 4 mins at room temperature. 9.5 ml supernatant was thence discarded, leaving a cell pellet at the bottom of the tube. The pellet was then resuspended using 100 μl of cold (4° C.), filtered (0.22 μm), 0.2% BSA/bather solution (0.02 g BSA/10 ml bather). The bottom of the tube was manually agitated gently until the solution became cloudy with cells. The 100 μl cell resuspension solution was then stored on the bench at 4° C. (using a Peltier-based temperature control device) until used.
A length of capillary glass (1B150E-4, WPI) was dipped into the cell suspension solution, such that ˜3 cm column of fluid was taken up by capillary action. A Ag/AgCl wire was dropped into the non-dipped end of the capillary also. The outside of the solution-filled end of the capillary was then dried and the capillary was loaded into the AutoPatch™
Borosilicate glass patch pipettes (from 1.5 mm OD, thin-walled filamented, GC150-TF capillary glass, Harvard) were pulled using a DMZ pipette puller (Zeitz Instruments), and were back-filled using the internal pipette solution, being careful that no bubbles remain at the tip or in the body of the pipette. Patch pipettes typically had resistances of 2.3-3.5 MΩ. Once filled, the pipette tip and a proportion of the shaft (˜15 mm) were dipped into Sigmacote (Sigma). The recording pipette was then loaded into the AutoPatch™. Automated patch-clamping was initiated by the operator, but thereafter AutoPatch.exe continued the experiment providing that pre-set conditions and criteria were satisfied.
Whole cell patch-clamp recordings were made using the AutoPatch™ rig, which incorporated an EPC9 amplifier (HEKA, Germany) under control of Pulse software (v8.54, HEKA, Germany), a motion controller with 2 translators (Newport, UK), valve controller (VF1) and a c-level suction device all at room temperature (22-24° C.). This equipment was completely under the control of AutoPatch.exe and operator intervention was only made when there was a requirement to refill the drug reservoirs or to prevent the loss of a cell due to a technical error. Cells with an Rseries greater than 18 MΩ were discounted from the experiment.
Qualification stages prior to perfusion and drug application ensured that the observed current met the criteria for the experiment. Only those cells with an IK>500 pA were used for experiments. Cells were continuously perfused with external solution at a flow rate of 1.8-2 ml/minute. […] Online analysis of the hKv1.5 current during the application of compounds was performed by the AutoPatch™ software. Voltage-step protocols and analysis of data was performed as described for conventional electrophysiology.
Electrophysiology voltage-step protocols and analysis of data was performed as follows. Data was sampled at 5 kHz, and filtered with a −3 dB bandwidth of 2.5 kHz. Cells were held at a voltage of −80 mV. Currents were evoked to a voltage step for 1000 ms in duration at 0 mV every 5 s. Currents were analysed using Pulsefit software (v8.54, HEKA, Germany), with the total charge measured during the whole of the voltage step. All other plots were produced using Igor Pro (WaveMetrics).

Sequence of hKv1.5 (P22460 whole entry): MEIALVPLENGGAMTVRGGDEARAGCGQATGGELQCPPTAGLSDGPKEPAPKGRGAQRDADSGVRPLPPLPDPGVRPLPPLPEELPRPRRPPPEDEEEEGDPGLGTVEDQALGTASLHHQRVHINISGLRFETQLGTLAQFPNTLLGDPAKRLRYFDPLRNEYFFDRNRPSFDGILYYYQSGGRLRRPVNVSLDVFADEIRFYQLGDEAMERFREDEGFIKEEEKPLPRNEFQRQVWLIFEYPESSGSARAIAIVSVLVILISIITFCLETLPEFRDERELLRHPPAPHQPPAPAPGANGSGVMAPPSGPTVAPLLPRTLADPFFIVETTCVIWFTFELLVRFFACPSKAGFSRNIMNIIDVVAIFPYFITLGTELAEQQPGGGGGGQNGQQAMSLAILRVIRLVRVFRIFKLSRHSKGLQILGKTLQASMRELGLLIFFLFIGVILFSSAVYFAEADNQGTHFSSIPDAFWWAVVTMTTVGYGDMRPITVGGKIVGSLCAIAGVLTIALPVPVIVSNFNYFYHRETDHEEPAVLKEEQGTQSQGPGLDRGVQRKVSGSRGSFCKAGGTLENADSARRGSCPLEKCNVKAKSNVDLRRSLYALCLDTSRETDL
T1 sequence (P22001 whole entry): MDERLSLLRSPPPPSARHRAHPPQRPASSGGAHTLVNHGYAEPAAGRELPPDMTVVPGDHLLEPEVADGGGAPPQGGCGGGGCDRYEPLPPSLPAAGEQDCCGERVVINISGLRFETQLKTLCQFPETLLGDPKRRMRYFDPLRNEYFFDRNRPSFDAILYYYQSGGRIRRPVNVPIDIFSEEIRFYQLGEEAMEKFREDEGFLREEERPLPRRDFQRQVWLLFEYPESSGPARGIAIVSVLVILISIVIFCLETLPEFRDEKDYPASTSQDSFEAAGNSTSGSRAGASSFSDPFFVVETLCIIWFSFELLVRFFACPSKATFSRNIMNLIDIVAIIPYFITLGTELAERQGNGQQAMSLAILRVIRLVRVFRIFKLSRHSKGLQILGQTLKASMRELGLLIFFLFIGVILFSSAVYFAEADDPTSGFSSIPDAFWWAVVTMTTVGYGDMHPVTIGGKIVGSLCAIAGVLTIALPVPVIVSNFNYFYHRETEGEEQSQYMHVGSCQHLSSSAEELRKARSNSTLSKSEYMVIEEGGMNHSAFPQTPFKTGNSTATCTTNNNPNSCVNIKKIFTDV

Row | Molecule | inhibition at 1 µM [2] [%] | hKv1.5 % inh. [2] [%] | also measured
1 | 1-Methyl-1H-imidazole-4-sulfonic acid benzyl-[3-(4-phenyl-piperazin-1-yl)-phenyl]-amide [Example 13] | – | – | hKv1.3 % inh. [1]: 41%
2 | 1-Methyl-1H-pyrazole-3-sulfonic acid (4-chloro-benzyl)-[4-fluoro-3-(2-oxo-pyrrolidin-1-yl)-phenyl]-amide [Example 37] | – | – | hKv1.3 % inh. [1]: 53%
3 | 1-Methyl-1H-pyrazole-3-sulfonic acid benzyl-[3-(2-oxo-pyrrolidin-1-yl)-phenyl]-amide [Example 39] | – | – | hKv1.3 % inh. [1]: 74%
4 | 1-Methyl-1H-pyrazole-4-sulfonic acid benzyl-[3-(2-oxo-pyrrolidin-1-yl)-phenyl]-amide [Example 24] | – | 41 | –
5 | 2-Methyl-2H-pyrazole-3-sulfonic acid (4-chloro-benzyl)-[3-(2-oxo-pyrrolidin-1-yl)-phenyl]-amide [Example 26] | – | 43 | –
6 | 3-Oxo-3,4-dihydro-2H-benzo[1,4]oxazine-6-sulfonic acid (4-chloro-benzyl)-[3-(2-oxo-pyrrolidin-1-yl)-phenyl]-amide [Example 29] | – | 72 | –
7 | Cn1cnc(S(=O)(=O)N(Cc2ccc(Cl)cc2)c2ccc(F)c(N3CCCC3=O)c2)c1 [Example 4, 1-Methyl-1H-imidazole-4-sulfonic acid (4-chloro-benzyl)-[4-fluoro-3-(2-oxo-pyrrolidin-1-yl)-phenyl]-amide] | – | – | inhibition at 1 µM ([1]; CHO, read-out: hKv1.3 % inh.): 61%
8 | O=C1COc2ccc(S(=O)(=O)N(Cc3ccccc3)c3cccc(N4CCCC4=O)c3)cc2N1 [Example 17, 3-Oxo-3,4-dihydro-2H-benzo[1,4]oxazine-6-sulfonic acid benzyl-[3-(2-oxo-pyrrolidin-1-yl)-phenyl]-amide] | 45 | – | –
9 | N#Cc1cccc(S(=O)(=O)N(Cc2ccccc2)c2cccc(N3CCOCC3)c2)c1 [Example 20, N-Benzyl-3-cyano-N-(3-morpholin-4-yl-phenyl)-benzenesulfonamide] | 90 | – | –
10 | CN1CCOc2cc(S(=O)(=O)N(Cc3ccccc3)c3cccc(N4CCOCC4)c3)ccc21 [Example 21, 4-Methyl-3,4-dihydro-2H-benzo[1,4]oxazine-7-sulfonic acid benzyl-(3-morpholin-4-yl-phenyl)-amide] | 72 | – | –
11 | N-(4-Chloro-benzyl)-3-cyano-N-(3-morpholin-4-yl-phenyl)-benzenesulfonamide [Example 30] | – | 97 | –
12 | N-Benzyl-3-cyano-N-[3-(2-oxo-pyrrolidin-1-yl)-phenyl]-benzenesulfonamide [Example 22] | – | 82 | –
13 | Pyridine-3-sulfonic acid (4-chloro-benzyl)-(3-morpholin-4-yl-phenyl)-amide [Example 35] | – | 84 | –

Now from value to molecule, other results behind:

Row | inhibition at 1 µM [2] [%] | Molecule | hKv1.5 % inh. [2] [%] | also measured
14 | 39 | Cc1nc(S(=O)(=O)N(Cc2ccc(Cl)cc2)c2cccc(N3CCCC3=O)c2)cn1C [Example 25, 1,2-Dimethyl-1H-imidazole-4-sulfonic acid (4-chloro-benzyl)-[3-(2-oxo-pyrrolidin-1-yl)-phenyl]-amide] | – | –
15 | 84 | CN1CCOc2cc(S(=O)(=O)N(Cc3ccc(Cl)cc3)c3cccc(N4CCCC4=O)c3)ccc21 [Example 27, 4-Methyl-3,4-dihydro-2H-benzo[1,4]oxazine-7-sulfonic acid (4-chloro-benzyl)-[3-(2-oxo-pyrrolidin-1-yl)-phenyl]-amide] | – | –
16 | 49 | Cn1cc(S(=O)(=O)N(Cc2ccc(Cl)cc2)c2cccc(N3CCCC3=O)c2)cn1 [Example 28, 1-Methyl-1H-pyrazole-4-sulfonic acid (4-chloro-benzyl)-[3-(2-oxo-pyrrolidin-1-yl)-phenyl]-amide] | – | –
17 | 47 | Cn1nccc1S(=O)(=O)N(Cc1ccc(Cl)cc1)c1cccc(N2CCOCC2)c1 [Example 31, 2-Methyl-2H-pyrazole-3-sulfonic acid (4-chloro-benzyl)-(3-morpholin-4-yl-phenyl)-amide] | – | –
18 | 64 | CN1CCOc2cc(S(=O)(=O)N(Cc3ccc(Cl)cc3)c3cccc(N4CCOCC4)c3)ccc21 [Example 32, 4-Methyl-3,4-dihydro-2H-benzo[1,4]oxazine-7-sulfonic acid (4-chloro-benzyl)-(3-morpholin-4-yl-phenyl)-amide] | – | –
19 | 58 | Cn1cc(S(=O)(=O)N(Cc2ccc(Cl)cc2)c2cccc(N3CCOCC3)c2)cn1 [Example 33, 1-Methyl-1H-pyrazole-4-sulfonic acid (4-chloro-benzyl)-(3-morpholin-4-yl-phenyl)-amide] | – | –
20 | 68 | O=C1COc2ccc(S(=O)(=O)N(Cc3ccc(Cl)cc3)c3cccc(N4CCOCC4)c3)cc2N1 [Example 34, 3-Oxo-3,4-dihydro-2H-benzo[1,4]oxazine-6-sulfonic acid (4-chloro-benzyl)-(3-morpholin-4-yl-phenyl)-amide] | – | –
